Results taken from patent publication US20240181000A1, “LGG-DERIVED PEPTIDES AND METHODS OF USE THEREOF” (Ohio State Innovation Foundation, priority 2021, published 2024).
No end group written: not given here.

Key:
APEC O78 membrane = assay: Bacterial cytological profiling (confocal microscopy); format: cell-based, E. coli; details: 5×MIC, 3 h
Method: Bacterial cytological profiling (BCP): To identify the mode of action (MOA) of peptides (P1, P2, and P3), BCP approach was used as described previously. […] Following incubation, cultures were centrifuged, and bacteria was resuspended in 100 μL sterile water. FM4-64 (1 μg/mL; Invitrogen™ Molecular Probes™) and Syto-9 (5 μM; Invitrogen™ Molecular Probes™) stains were added to the bacterial cultures and incubated at 4° C. for 45 mins with shaking at 150 rpm. The stained bacteria were centrifuged, pelleted, and resuspended in 10 μL sterile water. The bacterial suspension (3 μL) was transferred onto glass slides containing thin layer of 1.2% agar and 20% LB media for confocal microscopy. Microscopy was performed using Leica TCS SP6 confocal scanning microscope (FM4-64-excitation 515 nm and emission 640 nm: Syto-9-excitation 485 nm and emission 498 nm) at Molecular and Cellular Imaging Center (MCIC), The Ohio State University (mcic.osu.edu/microscopy). Untreated bacterial culture was used as control.

ST = assay: Alanine scanning SAR, anti-Salmonella activity; format: cell-based, Salmonella enterica
Method: Relative Importance was calculated using formula: (percent growth in analogue-percent growth in original peptide)/(percent growth in DMSO-treated control-percent growth in original peptide)×100.
Structural-activity relationship (SAR) study: Structure activity relationship analysis was used to better determine the important amino acids required for Anti-Salmonella activity of P1 and P2. Alanine scanning libraries of P1 and P2 were synthesized from Genscript (Table 28; (www.genscript.com/alanine_scanning.html) and tested for inhibitory activity as described above. Relative importance [(percent growth in analogue-percent growth in original peptide)/(percent growth in DMSO-treated control-percent growth in original peptide)×100] was used to identify crucial amino acids of each amino acid residue of the peptide. Two independent experiments were conducted to ensure accuracy.

APEC O78 = assay: Efficacy of peptides in chickens (oral, twice a day); format: in vivo; details: for Reduction of APEC colonization in cecum: 7 dpi
Method: Peptides were administered through orally twice a day from day 1 to day 7 either at 50 mg/kg or 100 mg/kg dose. On day 2, chickens were infected orally with Rif^γ APEC O78 (1-2×10^9 CFU/chicken). At day 9, chickens were euthanized, necropsied and cecum and internal organs (lung, liver, heart, and kidney) were processed for quantification of APEC load. The body weight of chickens was measured at day 9.
Efficacy of peptides in chickens: Animal study was approved by The Ohio State University Institutional Animal Care and Use Committee (IACUC, protocol #2010 A00000149). Chickens were euthanized using CO2 following American Veterinary Medical Association (AVMA) guidelines. Standard animal husbandry practices were followed throughout the experiment. Feed and water were provided ad libitum. The efficacy of peptides (P1, P2, and P3) were assessed at 50 mg/kg and 100 mg/kg doses in two successive experiments using commercial broiler chickens (n=10/group) (Cobb & Ross; Case Farms Ohio Hatchery, Strasburg, OH). […] Briefly, peptides dissolved in water [5 mg (50 mg/kg) or 10 mg (100 mg/kg) in 100 μL] were administered orally twice a day from day 1 (one day before APEC infection) today 7 (5 days post-infection; dpi). On day 2, chickens were infected orally with rifampicin resistant (Rif) APEC O78(27) (1-2×10^9 CFU/chicken). At 7 dpi (day 9), chickens were euthanized, necropsied and cecum and internal organs (lung, liver, heart, and kidney) were assessed for APEC load by plating on MacConkey agar plates containing 50 μg/mL rifampicin. The body weight of chickens was measured at the day of necropsy (day 9). The positive (PC; infected but not treated) and negative (NC; non-infected and non-treated) control chickens were included in both experiments. The statistical significance (P<0.05) of treatment on reduction of APEC load and effect on body weight was calculated using one-way ANOVA followed by Tukey's post-hoc test. […] Bacteria were grown in LB media and MICs were determined as above against respective peptides.

ST membrane = assay: Confocal microscopy (bacterial cytological profiling); format: cell-based, Salmonella enterica; details: 5×MIC, 3 h
Method: Mode of action of peptides analyzed through confocal microscopy: To determine the mode of action of P1 and P2, bacterial cytological profiling was conducted using confocal microscopy as described in. […] Incubated bacteria cultures were then centrifuged and re-suspended in 100 μL sterile water. Following suspension, 1 μg/mL of FM4-64 (Invitrogen™ Molecular Probes™) and 5 μM Syto-9 (Invitrogen™ Molecular Probes™) stains were added and incubated for 45 mins […] with 150 rpm. After incubation, the samples were centrifuged, and bacteria was re-suspended in 10 μl sterile water. For microscopic analysis, 3 μL of bacterial suspension was added to glass slides with 1.2% agar and 20% LB media. Untreated ST bacterial culture was used as a control. Leica TCS SP6 confocal scanning microscope (Excitation/emission (nm); FM4-64 (515/640), SYTO-9 (485/498) was used at the Ohio State University's Molecular and Cellular Imaging Center (MCIC; mcic.osu.edu/microscopy).

APEC = format: in vivo, chickens
Description: FIGS. 57A-57D show the APEC load of chickens (at 7 dpi [days post infection]) treated with either peptides P-1 or P-2.

PDENK [Peptide P2, PDENK]
APEC membrane in confocal microscopy (FM4-64/SYTO-9) (APEC O78 membrane): no or minimally visible APEC membrane
Relative importance of Asparagine in P2 (ST): 35%
Relative importance of Aspartate in P2 (ST): 82%
Relative importance of Proline in P2 (ST): zero relative importance
Relative importance of glutamic acid in P2 (ST): 77%
Relative importance of lysine in P2 (ST): 32%
Reduction of APEC colonization in cecum (APEC O78; 50 mg/kg dose): 0.9 logs
Number of chickens positive for APEC in internal organs (APEC O78; 100 mg/kg dose): reduced the number of chickens positive for APEC
Reduction of APEC colonization in cecum (APEC O78; 100 mg/kg dose): 1.3 logs
ST membrane in confocal microscopy (FM4-64 stain) (ST membrane): little to no red stain present
Reduction of APEC colonization in cecum (APEC; 50 mg/L in drinking water, 7 dpi): 1.5 log CFU/gm
Bodyweight (APEC; in vivo): no significant effect
